Assay results taken from patent US20150087673A1, “METHODS FOR USING AND BIOMARKERS FOR AMPK-ACTIVATING COMPOUNDS” (RIGEL PHARMACEUTICALS, INC., priority 2013, published 2015).

Test system: AMPK
Test: AMPK activation assay (enzyme-linked immunosorbent assay)
Format: cell-based
Procedure: Compounds were assayed for their ability to activate AMPK using an enzyme-linked immunosorbent assay. Reagents and procedures for measuring AMPK activation are well known and kits for AMPK activation assays are commercially available.

SMILES	EC50 [nM]
N#Cc1ccc(CN2CCC(NC(=O)c3ccc(C(=O)N4CCN(Cc5ccc(F)cc5)CC4)nc3)CC2)cc1 [Compound 1]	< 500
N#Cc1ccc(CN2CCC(NC(=O)c3ccc(C(=O)N4CCNCC4)cn3)CC2)cc1 [Compound 2, N-(1-(4-cyanobenzyl)piperidin-4-yl)-5-(piperazine-1-carbonyl)picolinamide]	> 10000
O=C(c1ccc(C(=O)N2CCN(Cc3ccc(F)cc3)CC2)nc1)N1CCN(Cc2ccc(F)cc2)CC1 [Compound 3, pyridine-2,5-diylbis((4-(4-fluorobenzyl)piperazin-1-yl)methanone)]	500 to 1000
N#Cc1ccc(C(=O)N2CCC(NC(=O)c3ccc(C(=O)N4CCN(Cc5ccc(F)cc5)CC4)cn3)CC2)cc1 [Compound 4, N-(1-(4-cyanobenzoyl)piperidin-4-yl)-5-(4-(4-fluorobenzyl)piperazine-1-carbonyl)picolinamide]	500 to 1000
N#Cc1ccc(CN2CCC(NC(=O)c3ccc(C(=O)Nc4cccc(Cc5ccccc5)c4)cn3)CC2)cc1 [Compound 5, N^2-(1-(4-cyanobenzyl)piperidin-4-yl)-N^5-(3-benzylphenyl)pyridine-2,5-dicarboxamide]	500 to 1000
O=C(NC1CCN(C(=O)C2CCCCC2)CC1)c1ccc(C(=O)N2CCN(Cc3ccc(F)cc3)CC2)cn1 [Compound 7, N-(1-(cyclohexanecarbonyl)piperidin-4-yl)-5-(4-(4-fluorobenzyl)piperazine-1-carbonyl)picolinamide]	< 500
O=C(NC1CCN(C(=O)c2ccccc2)CC1)c1ccc(C(=O)N2CCN(Cc3ccc(F)cc3)CC2)cn1 [Compound 8, N-(1-(benzoyl)piperidin-4-yl)-5-(4-(4-fluorobenzyl)piperazine-1-carbonyl)picolinamide]	< 500
N#Cc1ccc(Cn2ccc(NC(=O)c3ccc(C(=O)N4CCN(Cc5ccc(F)cc5)CC4)cn3)n2)cc1 [Compound 9, N-(1-(4-cyanobenzyl)-1H-pyrazol-3-yl)-5-(4-(4-fluorobenzyl)piperazine-1-carbonyl)picolinamide]	< 500
O=C(Nc1ccc(Cc2ccccc2)cc1)c1ccc(C(=O)N2CCN(Cc3ccc(F)cc3)CC2)cn1 [Compound 10, N-(4-benzylphenyl)-5-(4-(4-fluorobenzyl)piperazine-1-carbonyl)picolinamide]	< 500
O=C(Nc1ccc(-c2ccccc2)cc1)c1ccc(C(=O)N2CCN(Cc3ccc(F)cc3)CC2)cn1 [Compound 11]	< 500
O=C(Nc1cccc(-c2ccccc2)c1)c1ccc(C(=O)N2CCN(Cc3ccc(F)cc3)CC2)cn1 [Compound 12]	5000 to 10000
O=C(NC1CCN(CC2CCCCC2)CC1)c1ccc(C(=O)N2CCN(Cc3ccc(F)cc3)CC2)cn1 [Compound 13, N-(1-(cyclohexylmethyl)piperidin-4-yl)-5-(4-(4-fluorobenzyl)piperazine-1-carbonyl)picolinamide]	1000 to 5000
O=C(NC1CCN(c2ccccc2)CC1)c1ccc(C(=O)N2CCN(Cc3ccc(F)cc3)CC2)cn1 [Compound 14, 5-(4-(4-fluorobenzyl)piperazine-1-carbonyl)-N-(1-(phenyl)piperidin-4-yl)picolinamide]	500 to 1000
N#Cc1ccc(CN2CCC3(CCN(C(=O)c4ccc(C(=O)N5CCN(Cc6ccc(F)cc6)CC5)cn4)CC3)C2)cc1 [Compound 15, 4-((8-(5-(4-(4-fluorobenzyl)piperazine-1-carbonyl)picolinoyl)-2,8-diazaspiro[4.5]decan-2-yl)methyl)benzonitrile]	1000 to 5000

The next lines start with the values.

EC50 [nM]	SMILES
5000 to 10000	O=C(N[C@@H]1CCNC[C@@H]1F)c1ccc(C(=O)N2CCN(Cc3ccc(F)cc3)CC2)cn1 (relative stereo) [Compound 102, 5-(4-(4-fluorobenzyl)piperazine-1-carbonyl)-N-(cis-3-fluoropiperidin-4-yl)picolinamide]
< 500	O=C(N[C@@H]1CCN(Cc2ccncc2)C[C@@H]1F)c1ccc(C(=O)N2CCN(Cc3ccc(F)cc3)CC2)cn1 (relative stereo) [Compound 104, N-(cis-3-fluoro-1-(pyridin-4-ylmethyl)piperidin-4-yl)-5-(4-(4-fluorobenzyl)piperazine-1-carbonyl)picolinamide]
< 500	O=C(N[C@@H]1CCN(Cc2ccc(Cl)cc2)C[C@@H]1F)c1ccc(C(=O)N2CCN(Cc3ccc(F)cc3)CC2)cn1 (relative stereo) [Compound 127, N-(cis-1-(4-chlorobenzyl)-3-fluoropiperidin-4-yl)-5-(4-(4-fluorobenzyl)piperazine-1-carbonyl)picolinamide]
500 to 1000	CS(=O)(=O)c1ccc(C(=O)C2CCN(C(=O)c3ccc(C(=O)N[C@@H]4CCN(Cc5ccc(C#N)cc5)C[C@H]4F)nc3)CC2)cc1 (relative stereo) [Compound 252, N-((trans)-1-(4-cyanobenzyl)-3-fluoropiperidin-4-yl)-5-(4-(4-(methylsulfonyl)benzoyl)piperidine-1-carbonyl)picolinamide]
500 to 1000	CS(=O)(=O)c1ccc(C(=O)C2CCN(C(=O)c3ccc(C(=O)N[C@@H]4CCN(Cc5ccc(OC(F)(F)F)cc5)C[C@H]4F)nc3)CC2)cc1 (relative stereo) [Compound 253, N-((trans)-3-fluoro-1-(4-(trifluoromethoxy)benzyl)piperidin-4-yl)-5-(4-(4-(methylsulfonyl)benzoyl)piperidine-1-carbonyl)picolinamide]
< 500	CS(=O)(=O)c1ccc(OC2CCN(C(=O)c3ccc(C(=O)N[C@@H]4CCN(Cc5ccc(C#N)cc5)C[C@H]4F)nc3)CC2)cc1 (relative stereo) [Compound 254, N-((trans)-1-(4-cyanobenzyl)-3-fluoropiperidin-4-yl)-5-(4-(4-(methylsulfonyl)phenoxy)piperidine-1-carbonyl)picolinamide]
< 500	CS(=O)(=O)c1ccc(OC2CCN(C(=O)c3ccc(C(=O)N[C@@H]4CCN(Cc5ccc(OC(F)(F)F)cc5)C[C@H]4F)nc3)CC2)cc1 (relative stereo) [Compound 255, N-((trans)-3-fluoro-1-(4-(trifluoromethoxy)benzyl)piperidin-4-yl)-5-(4-(4-(methylsulfonyl)phenoxy)piperidine-1-carbonyl)picolinamide]
< 500	N#Cc1ccc(CN2CCC(NC(=O)c3ccc(C(=O)N4CC[C@H](Oc5ccc(C#N)cc5)[C@@H](F)C4)cn3)CC2)cc1 (relative stereo) [Compound 279, N-(1-(4-cyanobenzyl)piperidin-4-yl)-5-((trans)-4-(4-cyanophenoxy)-3-fluoropiperidine-1-carbonyl)picolinamide]
< 500	COc1ccc(C(=O)C2CCN(C(=O)c3ccc(C(=O)N[C@@H]4CCN(Cc5ccc(C#N)cc5)C[C@H]4F)cn3)CC2)cc1 (relative stereo) [Compound 349, N-((trans)-1-(4-cyanobenzyl)-3-fluoropiperidin-4-yl)-6-(4-(4-methoxybenzoyl)piperidine-1-carbonyl)nicotinamide]
< 500	COc1ccc(C(=O)C2CCN(C(=O)c3ccc(C(=O)N[C@@H]4CCN(Cc5ccc(OC(F)(F)F)cc5)C[C@H]4F)cn3)CC2)cc1 (relative stereo) [Compound 350, N-((trans)-3-fluoro-1-(4-(trifluoromethoxy)benzyl)piperidin-4-yl)-6-(4-(4-methoxybenzoyl)piperidine-1-carbonyl)nicotinamide]
< 500	COc1ccc(C(=O)C2CCN(C(=O)c3ccc(C(=O)N[C@@H]4CCN(Cc5ccc(N6CCCC6)cc5)C[C@H]4F)cn3)CC2)cc1 (relative stereo) [Compound 352, N-((trans)-3-fluoro-1-(4-(pyrrolidin-1-yl)benzyl)piperidin-4-yl)-6-(4-(4-methoxybenzoyl)piperidine-1-carbonyl)nicotinamide]
< 500	COc1ccc(C(=O)C2CCN(C(=O)c3ccc(C(=O)N[C@@H]4CCN(Cc5ccc(OC(C)C)cc5)C[C@H]4F)cn3)CC2)cc1 (relative stereo) [Compound 353, N-((trans)-3-fluoro-1-(4-isopropoxybenzyl)piperidin-4-yl)-6-(4-(4-methoxybenzoyl)piperidine-1-carbonyl)nicotinamide]
< 500	COc1ccc(C(=O)C2CCN(C(=O)c3ccc(C(=O)N[C@@H]4CCN(Cc5ccc(C#N)c(F)c5)C[C@H]4F)cn3)CC2)cc1 (relative stereo) [Compound 354, N-((trans)-1-(4-cyano-3-fluorobenzyl)-3-fluoropiperidin-4-yl)-6-(4-(4-methoxybenzoyl)piperidine-1-carbonyl)nicotinamide]
< 500	N#Cc1ccc(CN2CC[C@@H](NC(=O)c3ccc(C(=O)N4CCC(Oc5ccc(S(=O)(=O)C(F)(F)F)cc5)CC4)nc3)[C@H](F)C2)cc1 (relative stereo) [Compound 451, N-((trans)-1-(4-cyanobenzyl)-3-fluoropiperidin-4-yl)-6-(4-(4-(trifluoromethylsulfonyl)phenoxy)piperidine-1-carbonyl)nicotinamide]
< 500	COc1ccc(C(=O)C2CCN(C(=O)c3ccc(C(=O)N[C@@H]4CCN(Cc5ccc(C#N)cc5)C[C@@H]4F)cn3)CC2)cc1 (relative stereo) [Compound 454, N-((cis)-1-(4-cyanobenzyl)-3-fluoropiperidin-4-yl)-6-(4-(4-methoxybenzoyl)piperidine-1-carbonyl)nicotinamide]
< 500	COc1ccc(C(=O)C2CCN(C(=O)c3ccc(C(=O)N[C@@H]4CCN(Cc5ccc(OC(F)(F)F)cc5)C[C@@H]4F)cn3)CC2)cc1 (relative stereo) [Compound 461, N-((cis)-3-fluoro-1-(4-(trifluoromethoxy)benzyl)piperidin-4-yl)-6-(4-(4-methoxybenzoyl)piperidine-1-carbonyl)nicotinamide]
< 500	O=C(Nc1ccc(Oc2ccccc2)cc1)c1ccc(C(=O)N2CCN(Cc3ccc(F)cc3)CC2)cn1 [Compound 16, 5-(4-(4-fluorobenzyl)piperazine-1-carbonyl)-N-(4-phenoxyphenyl)picolinamide]
> 10000	O=C(c1ccc(-c2ccc(OCc3ccccc3)cc2)nc1)N1CCN(Cc2ccc(F)cc2)CC1 [Compound 17, (4-(4-fluorobenzyl)piperazin-1-yl)(6-(4-(benzyloxy)phenyl)pyridin-3-yl)methanone]
